According to US10363251B2, “(+)-morphinans as antagonists of toll-like receptor 9 and therapeutic uses thereof” (Mallinckrodt LLC, priority 2009, dated 2019):
Entries after “also recorded” stand apart in the source; their conditions may differ.

How the values were obtained:
[1] = test system: chronic constriction injury (CCI) neuropathic pain model; assay: Mechanical allodynia (Von Frey) in chronic constriction injury (Bennett) model, Example 3; assay type: in vivo, rat; conditions: Day 14 post-surgery, 30 and 90 min post-dosing, vs vehicle; for Mechanical allodynia (50% allodynia threshold), left (affected) paw: (+)-naloxone.HCl 66.7 mg/kg S.C., Gabapentin 100 mg/kg I.P.
From the text: Neuropathic pain affects approximately 1% of the U.S. population and is extremely difficult to manage. Usually the pain is chronic, severe, and fails to respond to traditional analgesic drugs. Fortunately, one of the most widely used animal models for neuropathic pain closely mimics the pain endured by patients. In this model, termed the chronic constriction injury (CCI) or Bennett model, four closely spaced ligatures tied loosely around the sciatic nerve of a rat cause demyelination of the nerve, resulting in spontaneous pain, such as prolonged paw elevation and licking of the ligated paw. Induced pain in the nerve-injured limb can be measured using Von Frey filaments, applied to the plantar surface of the paw to test for responses to non-noxious tactile stimulation. The onset of this heightened mechanical allodynia is quite rapid and it persists for 2-3 months.
In this example, the CCI ligation was performed on the left sciatic nerve in three groups of rats. Von Frey testing of mechanical allodynia was performed on both paws on Day 14 to determine the analgesic efficacy of the test agent. The testing was performed pre-dosing, and at 30 and 90 minutes post-dosing.
The animals were allocated to treatment groups based on their baseline Von Frey data, measured prior to surgery. The mechanical allodynia scores for each group were reviewed to ensure that the mean values and standard deviation satisfied the assumption of homogeneity. Thirty-one (31) animals were used on the study. Thirty (30) animals were initially allocated to treatment groups, and the remaining […] animals were held as spares. One spare was then used to replace an animal that died during surgery. Body weights were taken one day after arrival, prior to surgery and weekly thereafter. On Day 14, after the final behavioral testing, the animals were euthanized by carbon dioxide asphyxiation. No necropsy was performed nor tissues collected.
All surgeries were performed under aseptic conditions. Prior to surgery, the rats were sedated using inhaled Isoflurane anesthetic. The left leg was shaved and prepped. The common sciatic nerve was exposed and freed from adherent tissue at mid-thigh by separating the muscle (biceps femoris) by blunt dissection. Proximal to the sciatic nerve's trifurcation; approximately 7 mm of nerve was freed from the adhering tissue. Four ligatures, approximately 1 mm apart, were tied loosely around the nerve using 6.0 chromic catgut. Each of the sutures was tied loosely with a square knot around the sciatic nerve. A brief twitch in the muscle surrounding the exposure was an indicator of the desired degree of constriction. The site was then closed using the appropriate suture material. Post-operative care and observations were carried out until the animal recovered consciousness.
The animals underwent a series of behavioral testing for neuropathic pain assessment. A Von Frey test of mechanical allodynia was performed on both hind paws prior to surgery to achieve a baseline measurement for randomization and then following surgery on Day 14 (test article efficacy) according to Table 4.
Twice prior to surgery, the animals were acclimated to the allodynia apparatus. This habituated the rats to the testing devices to familiarize them with the apparatus so they were calm at the time of testing. […] Animals were first habituated to the testing chamber so that they were calm enough for their pain threshold to be assessed. […]

[2] = test system: acute pancreatitis; assay: Caerulein-induced acute pancreatitis model; assay type: in vivo, mouse; conditions: 30 mg/kg subcutaneously, vs saline
Protocol: Acute pancreatitis can be induced in rodents by administration of caerulein, a CCK analog derived from derived from the Australian tree frog Litoria caerulea. To determine whether a (+)-morphinan could reduce the inflammation and/or consequences of pancreatitis, the following example was performed. Mice were administered subcutaneously an effective dose of caerulein and either saline or Cmpd II-78 (30 mg/kg). After the standard period of time, the mice were sacrificed. Pancreatic tissue sections were stained and examined for neutrophil infiltration, and pancreatic trypsin, serum amylase, and pancreatic caspase −1 activities were measure using standard assays.

[3] = test system: Experimental Autoimmune Encephalomyelitis (EAE); conditions: bid for 20 days; Cmpd II-98 5 mg/kg sc, others 20 mg/kg sc, Prednisolone 4.5 mg/kg ip; vs vehicle control
[4] = test system: TLR9; assay: IFN-β up-regulation in plasmacytoid dendritic cells by TLR9 agonist ODN2395; assay type: cell-based
From the text: TLR9 signalling involves activation of NF-κB and IRF downstream pathways. The (+)-morphinan inhibited both of these pathways following activation of TLR9 (but not activation of TLR4 or other receptors). The type C TLR9 agonist, ODN2395, and the TL4 agonist, LPS, both induce up-regulation of IL-1β in peritoneal macrophages via activation of NF-κB.

Row | Compound | Mechanical allodynia (50% allodynia threshold), left (affected) paw ([1]; listed as (+)-naloxone) | Mechanical allodynia (50% allodynia threshold), left (affected) paw ([1]; listed as (+)-naloxone.HCl) | Mechanical allodynia (50% allodynia threshold), right (unaffected) paw [1] | Neutrophil infiltration in the pancreas [2] | Pancreatic caspase 1 activity [2] | Pancreatic trypsin activity [2] | Serum amylase [2] | EAE clinical scores [3] | IFN-β mRNA up-regulation (IRF pathway) [4]
1 | C=CCN1CC[C@]23c4c5ccc(O)c4O[C@H]2C(=O)CC[C@]3(O)[C@H]1C5 [(+)-Naloxone, (+)-naloxone] | effective at significantly reducing the allodynia | effective analgesic for reversing neuropathic pain | no significant group differences |  |  |  |  |  | 
2 | CN[C@@H]1CC[C@]2(O)[C@@H]3Cc4ccc(O)c5c4[C@]2(CCN3CC2CC2)[C@@H]1O5 [II-78] |  |  |  | dramatically reduced; also recorded: reduced neutrophil infiltration in the pancreas | Significant reductions; also recorded: reduced pancreatic caspase 1 activity | Significant reductions; also recorded: reduced | Significant reductions; also recorded: reduced serum amylase | did not improve EAE | this activation was inhibited; also recorded: reduced both NFκB- and IRF-dependent pathways downstream of TLR9
